In PMC4016748, “Using ^15N-Ammonium to Characterise and Map Potassium Binding Sites in Proteins by NMR Spectroscopy” (Chembiochem, 2014):

Assays:
DnaK-ABD [1] = biological target: T1, DnaK-ABD (Thermus thermophilus, UniProt Q56235); experiment: 1H, […] HSQC NMR of bound […]NH4+ (indirect); format: binding; details: 0.5 mM ADP added together with 50 mM phosphate; 150 mM 15NH4Cl, 5 mM MgCl2, 1 mM DTT, pH 7.5
DnaK-ABD [2] = biological target: T1, DnaK-ABD; details: 150 mM 15NH4Cl, 5 mM MgCl2, 0.5 mM ADP, 50 mM phosphate, 1 mM DTT, pH 7.5; two sites; 15N-labelled compound
HDAC8 = HDAC8 (Homo sapiens, UniProt Q9BY41); experiment: biochemical
HDAC8, sequence (Q9BY41 whole entry): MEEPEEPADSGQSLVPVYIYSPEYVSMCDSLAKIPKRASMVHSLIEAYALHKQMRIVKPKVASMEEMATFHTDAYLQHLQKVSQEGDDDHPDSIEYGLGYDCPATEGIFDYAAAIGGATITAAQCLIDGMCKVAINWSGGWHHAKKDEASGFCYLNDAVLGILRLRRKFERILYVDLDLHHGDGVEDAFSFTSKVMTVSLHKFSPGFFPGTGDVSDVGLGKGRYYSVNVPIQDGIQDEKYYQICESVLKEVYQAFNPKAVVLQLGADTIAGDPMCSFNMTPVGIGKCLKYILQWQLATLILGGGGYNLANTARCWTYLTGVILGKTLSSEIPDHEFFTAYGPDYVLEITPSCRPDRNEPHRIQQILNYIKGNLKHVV

T1 sequence (Q56235 1-381): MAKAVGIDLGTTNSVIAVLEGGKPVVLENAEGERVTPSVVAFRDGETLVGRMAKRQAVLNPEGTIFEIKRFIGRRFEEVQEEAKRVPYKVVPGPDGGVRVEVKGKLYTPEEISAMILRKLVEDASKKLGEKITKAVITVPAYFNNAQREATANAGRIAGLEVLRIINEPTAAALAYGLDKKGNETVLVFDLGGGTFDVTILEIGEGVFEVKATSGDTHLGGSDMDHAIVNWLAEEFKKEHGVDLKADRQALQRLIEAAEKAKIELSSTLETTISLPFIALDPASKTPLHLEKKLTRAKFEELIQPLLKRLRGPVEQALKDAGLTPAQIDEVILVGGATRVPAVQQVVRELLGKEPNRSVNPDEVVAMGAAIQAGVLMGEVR

## Nc1ncnc2c1ncn2[C@@H]1O[C@H](COP(=O)(O)OP(=O)(O)O)[C@@H](O)[C@H]1O [ADP]
DnaK-ABD [1]
  1H,15N HSQC NMR of bound 15NH4+ (indirect): binding of ADP and Pi protects the ammonium protons from solvent exchange

## N [15NH4+]
DnaK-ABD [2]
  1H,15N HSQC NMR and 15N-edited NOESY: addition of ADP and Pi resulted in the appearance of two clear peaks
HDAC8
  Kd: 13 ± 8 mM
